The source of these data is ChEMBL document CHEMBL3508693 (2016).

Structures are written as SMILES.

Data set [1] concerns the target T1, CYP1A2 (Homo sapiens, UniProt P05177).
T1 sequence (P05177 whole entry): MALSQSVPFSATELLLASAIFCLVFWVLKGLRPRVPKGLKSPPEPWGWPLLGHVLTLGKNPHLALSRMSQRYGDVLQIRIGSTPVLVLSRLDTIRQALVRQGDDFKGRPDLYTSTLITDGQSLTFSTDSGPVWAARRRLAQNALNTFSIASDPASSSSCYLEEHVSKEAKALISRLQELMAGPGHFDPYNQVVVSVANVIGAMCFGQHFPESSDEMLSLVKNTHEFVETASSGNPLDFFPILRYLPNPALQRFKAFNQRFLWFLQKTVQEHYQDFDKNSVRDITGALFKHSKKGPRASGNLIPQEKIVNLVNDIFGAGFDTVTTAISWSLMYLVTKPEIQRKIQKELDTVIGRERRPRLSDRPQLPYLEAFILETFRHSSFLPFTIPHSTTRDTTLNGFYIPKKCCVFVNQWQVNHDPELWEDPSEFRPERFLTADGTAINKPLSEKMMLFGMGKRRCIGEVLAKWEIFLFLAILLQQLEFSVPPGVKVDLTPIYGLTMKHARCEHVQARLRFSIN
The data set can be described thus: Inhibitory activity of 200 uM SPP100 on 578 Pmoles of cDNA-derived CYP1A2 enzyme in microsome prepared from human lymphoblastoid cell line. In kind it is ADME, microsomes. As to conditions: probe phenacetin. On the set-up: conc 200 uM, interact cpd conc 50 uM.

The target in data set [2] is T1, CYP1A2. The data set can be described thus: Inhibitory activity of 20 uM SPP100 on 502 Pmoles of cDNA-derived CYP1A2 enzyme in microsome prepared from human lymphoblastoid cell line. Format: ADME, microsomes. Set-up: conc 20 uM, interact cpd conc 50 uM. The following applies: probe phenacetin.
The nature of data set [3]: Terminal elimination half-life of SPP100 following single oral dose of SPP100 300 mg capsule studied in healthy human. Format: ADME, organism-based. The following applies: plasma.
Data set [4] is described as follows: Excretion of radioactivity (24-48h) in faeces following single intravenous dose of 10 mg.Kg-1 [14C] aliskiren hemifumarate in rat. In kind it is ADME, organism-based, Albino HAN:WIST, Feces. The following applies: in vivo.
Data set [5] can be described thus: Concentration of radioactivity in the brown fat following repeated oral administration of [14C] aliskiren hemifumarate at 100 mg.Kg-1 level studied at 2h after 7th dose in rat. In kind it is ADME, organism-based, Albino HAN:WIST, Brown adipose tissue. As to conditions: in vivo.
In data set [6] the target is Cytochrome P450 3A5 (Homo sapiens, UniProt P20815). Briefly: Metabolic clearance (ul.min.nmol-1 CYP) of aliskiren hemifumarate for CYP3A5 was determined in human liver microsome incubated with [14C]SPP100 hemifumarate. In kind it is ADME. As to conditions: microsomes. In general terms: Microsomes from liver hold many membrane-bound enzymes, among them those of drug oxidation.

A short description of data set [7]: Excretion of radioactivity (48-72h) in faeces following single oral dose of 500 mg.Kg-1 [14C] aliskiren hemifumarate in mouse. Format: ADME, organism-based, TgRasH2, Feces. As to conditions: in vivo.
Data set [8] in a line: % of radioactivity (24h) recovered in bile following single intravenous administration of 10 mg.Kg-1 [14C] aliskiren hemifumarate in male rat. Format: ADME, organism-based, HAN:WIST(SPF). As to conditions: in vivo.
Data set [9] concerns the target Cytochrome P450 2D6 (Homo sapiens, UniProt P10635). The data set can be described thus: Involvement of CYP2D6 in the metabolism of [14C] aliskiren hemifumarate based on studies with microsomes from baculovirus-infected insect cells expressing recombinant human CYP450s and studies with pooled human liver microsomes from 22 donors. Format: ADME, Microsome.
Data set [10] is described as follows: Concentration of radioactivity in the brown fat following repeated oral administration of [14C] aliskiren hemifumarate at 100 mg.Kg-1 level studied at 2h after 10th dose in rat. In kind it is ADME, organism-based, Albino HAN:WIST, Brown adipose tissue. As to conditions: in vivo.
Data set [11] in a line: Total excretion of radioactivity following intravenous administration of [14C] aliskiren hemifumarate at 1 mg.Kg-1 level in marmoset. The following applies: in vivo. In kind it is ADME, organism-based, Callithrix jacchus, Urine/Feces.
Data set [12] is described as follows: Excretion of radioactivity (0-24h) in urine following single oral dose of 100 mg.Kg-1 [14C] aliskiren hemifumarate in rat. In kind it is ADME, organism-based, Albino HAN:WIST. The following applies: in vivo.
Data set [13] is described as follows: Excretion (0-168h) of radioactivity in urine following oral administration of [14C] aliskiren hemifumarate at 3 mg.Kg-1 level in marmoset. In kind it is ADME, organism-based, Callithrix jacchus. As to conditions: in vivo.
A short description of data set [14]: AUC of aliskiren hemifumarate following single dosing of SPP100B oral solution at 640 mg level studied on day 1 in men. In kind it is ADME, organism-based. The following applies: male, human, plasma.
Data set [15] is described as follows: AUC (0-96 or 0-168h) of unlabeled aliskiren hemifumarate following single intravenous administration of aliskiren hemifumarate at 1 mg.Kg-1 level in marmoset. As to conditions: plasma. In kind it is ADME, organism-based, Callithrix jacchus.
A short description of data set [16]: Tmax of aliskiren hemifumarate following 4 week oral dietary dosing of aliskiren hemifumarate at 2000 mg.Kg-1 level in male mouse. In kind it is ADME, organism-based. As to conditions: CB6F1-TGrasH2, mouse, in vivo.
Data set [17] deals with T2, hERG (KCNH2) (Homo sapiens, UniProt Q12809). Briefly: Effects of 1000 uM aliskiren hemifumarate on current through cloned hERG channel expressed in human embryonic kidney cell. In kind it is cell-based. On the set-up: conc 1000 uM, dose level High. As to conditions: HEK293 cells that express cloned hERG channel, read-out: Inhibitory activity. (The hERG channel carries a current that helps repolarise heart muscle cells.)

Data set [18] in a line: Cmax (0-168h) of unlabeled aliskiren hemifumarate following single intravenous administration of aliskiren hemifumarate at 1 mg.Kg-1 level in marmoset. Format: ADME, organism-based, Callithrix jacchus. The following applies: plasma.
A short description of data set [19]: Tmax of aliskiren hemifumarate following 4 week oral dietary dosing of aliskiren hemifumarate at 1000 mg.Kg-1 level in female mouse. Format: ADME, organism-based. As to conditions: CB6F1-TGrasH2, mouse, in vivo.
The nature of data set [20]: Cmax of aliskiren hemifumarate following 4 week oral dietary dosing of aliskiren hemifumarate at 1500 mg.Kg-1 level in female mouse. In kind it is ADME, organism-based. As to conditions: CB6F1-TGrasH2, mouse, in vivo.
Data set [21] in a line: Cmax of aliskiren hemifumarate following 4 week oral dietary dosing of aliskiren hemifumarate at 500 mg.Kg-1 level in male mouse. In kind it is ADME, organism-based. The following applies: CB6F1-TGrasH2, mouse, in vivo.
Data set [22] has as its target Voltage-gated inwardly rectifying potassium channel KCNH2 (Homo sapiens, UniProt Q12809). The data set can be described thus: Inhibitory concentration of aliskiren hemifumarate against cloned hERG channel expressed in human embryonic kidney cell. Format: cell-based. As to conditions: hek293.
Data set [23] is described as follows: Cmaxspec of aliskiren hemifumarate following 2 week oral dosing of aliskiren hemifumarate at 50 mg.Kg-1 level studied on day 14 in female Callithrix jacchus. In kind it is ADME, organism-based, Plasma. The following applies: marmoset, in vivo, 336 h.
A short description of data set [24]: AUC(0-24h) of aliskiren hemifumarate following 2 week oral dosing of aliskiren hemifumarate at 10 mg.Kg-1 level studied on […] in male Callithrix jacchus. Format: ADME, organism-based. As to conditions: marmoset, plasma.
A short description of data set [25]: AUC (0-96h) of unlabeled aliskiren hemifumarate following intravenous administration of aliskiren hemifumarate at 10 mg.Kg-1 level in rat. Format: ADME, organism-based. The following applies: Albino HAN:WIST, plasma.
The nature of data set [26]: Effect of 2 week oral dosing of aliskiren hemifumarate at 50 mg.Kg-1 level on plasma creatinine level in male Callithrix jacchus. In kind it is toxicity, organism-based. The following applies: marmoset, 336 h.
Data set [27] is described as follows: Tmax of aliskiren hemifumarate following 8 day once-daily dosing of SPP100B oral solution at 160 mg level studied on day 8 in men. In kind it is ADME, organism-based. As to conditions: male, human, plasma.
Data set [28] can be described thus: Cmax of aliskiren hemifumarate following single dosing of SPP100B oral solution at 640 mg level studied on day 1 in men. In kind it is ADME, organism-based. The following applies: male, human, plasma.
Data set [29] in a line: Effect of 4 week oral dietary dosing of aliskiren hemifumarate at 2000 mg.Kg-1 level on density of uterine gland in female mouse. In kind it is toxicity, organism-based, CB6F1-TGrasH2, Endometrial gland. As to conditions: in vivo, 672 h.
The target in data set [30] is T2, hERG (KCNH2). The data set can be described thus: Effects of 10 uM aliskiren hemifumarate on current through cloned hERG channel expressed in human embryonic kidney cell. Format: cell-based. On the set-up: conc 10 uM, dose level Low. The following applies: HEK293 cells that express cloned hERG channel, read-out: Inhibitory activity.
Data set [31] in a line: Effect of 2 week oral dosing of aliskiren hemifumarate at 50 mg.Kg-1 level on hematological parameter values in female Callithrix jacchus. In kind it is toxicity, organism-based, Plasma. As to conditions: marmoset, in vivo, 336 h.
Data set [32] can be described thus: Cmax normalised (0-168h) of unlabeled aliskiren hemifumarate following single oral administration of aliskiren hemifumarate at 3 mg.Kg-1 level in marmoset. Format: ADME, organism-based, Callithrix jacchus, Plasma. The following applies: in vivo.
The nature of data set [33]: AUCspec of aliskiren hemifumarate following 2 week oral dosing of aliskiren hemifumarate at 50 mg.Kg-1 level studied on day 14 in female Callithrix jacchus. In kind it is ADME, organism-based, Plasma. As to conditions: marmoset, in vivo, 336 h.

A word on the half-life: it is the time needed for the level to fall by half in the phase considered. By AUC is commonly meant the area under the concentration-time curve, a measure of exposure. Low readings indicate low exposure, high ones high exposure. As a reminder, the Tmax is the time at which the peak concentration occurs. The term Cmax denotes the highest concentration seen after dosing. The term IC25 denotes the concentration needed for an effect of 25%. Read a high IC25 as weaker potency. By AUC(0-t) is commonly meant exposure summed from dosing to a finite time, without extrapolation to infinity. A high value points to more exposure.

Chain of Voltage-gated inwardly rectifying potassium channel KCNH2 (Q12809 whole entry): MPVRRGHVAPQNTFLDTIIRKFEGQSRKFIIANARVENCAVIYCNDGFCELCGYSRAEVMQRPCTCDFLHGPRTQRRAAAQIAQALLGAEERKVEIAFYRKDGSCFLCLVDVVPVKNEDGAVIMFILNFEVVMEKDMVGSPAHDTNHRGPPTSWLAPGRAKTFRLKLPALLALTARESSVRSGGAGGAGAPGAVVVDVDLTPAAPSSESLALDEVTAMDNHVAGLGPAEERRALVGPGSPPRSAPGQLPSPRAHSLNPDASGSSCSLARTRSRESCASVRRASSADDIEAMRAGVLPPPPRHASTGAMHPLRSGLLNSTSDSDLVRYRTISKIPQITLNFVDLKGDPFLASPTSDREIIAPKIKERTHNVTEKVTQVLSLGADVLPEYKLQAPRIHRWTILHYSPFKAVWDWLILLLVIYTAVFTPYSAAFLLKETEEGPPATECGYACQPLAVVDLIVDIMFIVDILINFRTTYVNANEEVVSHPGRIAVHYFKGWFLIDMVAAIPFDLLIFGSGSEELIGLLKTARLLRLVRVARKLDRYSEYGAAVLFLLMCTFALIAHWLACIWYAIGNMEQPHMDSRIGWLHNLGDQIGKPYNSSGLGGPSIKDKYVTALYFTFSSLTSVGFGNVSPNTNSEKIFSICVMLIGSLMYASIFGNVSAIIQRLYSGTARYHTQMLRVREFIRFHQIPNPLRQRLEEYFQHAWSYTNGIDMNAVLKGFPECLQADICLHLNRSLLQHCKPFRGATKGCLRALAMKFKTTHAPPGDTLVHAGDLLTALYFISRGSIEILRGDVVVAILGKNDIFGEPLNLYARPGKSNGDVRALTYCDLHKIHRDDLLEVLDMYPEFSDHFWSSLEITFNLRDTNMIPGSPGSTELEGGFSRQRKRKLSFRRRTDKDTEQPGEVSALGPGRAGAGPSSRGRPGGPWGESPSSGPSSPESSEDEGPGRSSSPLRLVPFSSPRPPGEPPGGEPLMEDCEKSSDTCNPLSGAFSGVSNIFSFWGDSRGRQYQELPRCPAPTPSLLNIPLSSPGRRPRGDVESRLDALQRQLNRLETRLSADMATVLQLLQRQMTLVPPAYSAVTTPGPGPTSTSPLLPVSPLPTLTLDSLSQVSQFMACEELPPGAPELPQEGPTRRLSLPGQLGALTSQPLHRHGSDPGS
T2 sequence (Q12809 whole entry): as above
Chain of Cytochrome P450 2D6 (P10635 whole entry): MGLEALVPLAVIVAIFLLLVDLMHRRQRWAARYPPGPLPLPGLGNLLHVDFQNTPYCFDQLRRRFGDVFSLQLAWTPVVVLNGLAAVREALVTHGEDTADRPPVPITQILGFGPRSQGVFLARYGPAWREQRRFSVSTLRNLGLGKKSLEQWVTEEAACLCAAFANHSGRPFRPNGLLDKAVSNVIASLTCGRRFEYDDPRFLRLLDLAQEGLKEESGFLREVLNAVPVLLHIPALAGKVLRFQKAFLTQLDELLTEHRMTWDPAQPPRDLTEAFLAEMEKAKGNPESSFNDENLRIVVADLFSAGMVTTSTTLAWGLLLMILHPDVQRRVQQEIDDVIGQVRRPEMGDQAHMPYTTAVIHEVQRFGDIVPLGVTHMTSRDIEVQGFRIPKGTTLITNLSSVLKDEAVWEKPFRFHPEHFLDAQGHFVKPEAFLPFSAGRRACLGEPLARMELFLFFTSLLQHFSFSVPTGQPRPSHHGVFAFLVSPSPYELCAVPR
Chain of Cytochrome P450 3A5 (P20815 whole entry): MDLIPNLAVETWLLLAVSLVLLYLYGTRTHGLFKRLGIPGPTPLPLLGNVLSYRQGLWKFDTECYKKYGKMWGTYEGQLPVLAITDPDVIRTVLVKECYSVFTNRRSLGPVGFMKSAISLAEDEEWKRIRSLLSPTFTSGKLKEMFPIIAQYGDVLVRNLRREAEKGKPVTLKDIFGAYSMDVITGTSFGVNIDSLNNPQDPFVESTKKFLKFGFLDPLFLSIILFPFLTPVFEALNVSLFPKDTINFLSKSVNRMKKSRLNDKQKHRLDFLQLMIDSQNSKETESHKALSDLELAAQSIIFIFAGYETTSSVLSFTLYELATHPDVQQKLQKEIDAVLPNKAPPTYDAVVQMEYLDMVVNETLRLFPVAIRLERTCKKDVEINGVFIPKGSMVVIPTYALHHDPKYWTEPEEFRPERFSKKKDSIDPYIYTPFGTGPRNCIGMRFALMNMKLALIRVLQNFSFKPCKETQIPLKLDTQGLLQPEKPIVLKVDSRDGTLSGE

Take `COCCCOc1cc(C[C@@H](C[C@H](N)[C@@H](O)C[C@H](C(=O)NCC(C)(C)C(N)=O)C(C)C)C(C)C)ccc1OC`: in [1], the inhibition at 200 µM was -12.4%. For the same compound, the inhibition at 20 µM in data set [2] came out at 2.5%. In [3], this compound showed a half-life of 37 h.
Take `COCCCOc1cc(C[C@@H](C[C@H](N)[C@@H](O)C[C@H](C(=O)NCC([14CH3])([14CH3])C(N)=O)C(C)C)C(C)C)ccc1OC.O=C(O)/C=C/C(=O)O`: the Radiolabel recovery in data set [4] is listed as 28.2%; in [5], “OUTCOME = Detected”; in data set [7], 0.16%; in [8], 70%; in data set [10], “OUTCOME = Detected”; in [11], 83.1%. The Radiolabel recovery was found to be 0.47% in [12] and 4.5% in data set [13]. Also, the CL in data set [6] was found to be 47 µL·min/nmol. In addition, the Activity entry in data set [9] is on record as “OUTCOME = Observed, VALUE = CYP2D6 contributed to a minor extent on metabolism of aliskiren”.
Consider `COCCCOc1cc(C[C@@H](C[C@H](N)[C@@H](O)C[C@H](C(=O)NCC(C)(C)C(N)=O)C(C)C)C(C)C)ccc1OC.COCCCOc1cc(C[C@@H](C[C@H](N)[C@@H](O)C[C@H](C(=O)NCC(C)(C)C(N)=O)C(C)C)C(C)C)ccc1OC.O=C(O)/C=C/C(=O)O` [ALISKIREN FUMARATE], for which, in [14], the AUC was 1190 ng·h/mL. Also, in [15], the AUC at 168 h was 49 µM·h. For the same compound, the time of peak concentration (Tmax) in data set [16] was determined as 1 h; in [19], 3 h; in [27], 4.1 h. For the same compound, the inhibition at 1000 µM in data set [17] is 32%. Besides, the peak concentration (Cmax) came to 14.2 µM in data set [18], 1020 ng/mL in [20], 312 ng/mL in data set [21] and 146 ng/mL in data set [28]. The IC25 in data set [22] turned out to be 670.9 µM. For the same compound, the IC50 entry in data set [22] is “OUTCOME = IC50 was not calculated since inhibition did not reach 50% level”. Moreover, the results for the Cmax normalised in data set [23] and in [32] were 0.202 (ug/ml)/(mg/kg) and 0.132 (umol/L)/(mg/kg), respectively. In addition, in [24], the exposure (AUC) at 24 h was determined as 33900 ng·h/mL. The AUC(0-t) at 96 h in data set [25] amounted to 12.6 µM·h. The same compound yielded a CREAT_CHANGE_BY in data set [26] of 130%. Also, the “Change in density of uterine gland” value in [29] is given as “OUTCOME = Decreased. No animals died during the study”. Also, the inhibition at 10 µM in data set [30] was 1.4%. Besides, the Change in hematology result in data set [31] is recorded as “OUTCOME = Hematological parameter values did not differ from control values. No animals died during the study”. Besides, the AUC normalised in data set [33] is given as 2.18 ((ug.h.ml-1)/(mg/kg).
